Source: PMC9909137 (Archives of Virology, 2023)
pIC50: −log10 of the molar value. Like-named read-outs stand apart in the source and are kept apart here.

How the values were obtained:
[1] = tested on: A/northern shoveler/Egypt/MB.D690OP/2016 (H7N3, 690OP); assay: organism not typed; format: cell-based, avian influenza H7N3 virus; conditions: MDCK, 72 h, read-out: IC50 690OP
[2] = tested on: A/Puerto Rico/8/34 (H1N1); assay: microbe, parasite or virus in culture; format: cell-based; conditions: Influenza A virus, H1N1, MDCK, 72 h, read-out: IC50 H1N1
[3] = tested on: A/teal/Egypt/MB.D128OP/2015 (H7N3, 128OP); assay: organism not typed; format: cell-based, avian influenza H7N3 virus; conditions: read-out: IC50 128OP
in vitro = conditions: dog
[4] = tested on: A/teal/Egypt/MB.D487OP/2016 (H7N3, 487OP); assay: organism not typed; format: cell-based, avian influenza H7N3 virus; conditions: MDCK, 72 h, read-out: IC50 487OP
[5] = tested on: A/teal/Egypt/MB.D125OP/2015 (H7N3, 125OP); assay: organism not typed; format: cell-based, avian influenza H7N3 virus; conditions: MDCK, 72 h, read-out: IC50 125OP
[6] = tested on: Madin-Darby canine kidney (MDCK) cells; conditions: dog

SMILES	pIC50 [1]	pIC50 [2]	pIC50 ([3]; MDCK, 72 h)	CC50 (in vitro)	pIC50 [4]	pIC50 [5]	CC50 [6]	pIC50 [3]
CCOC(=O)C1=C[C@@H](OC(CC)CC)[C@H](NC(C)=O)[C@@H](N)C1 [Oseltamivir, oseltamivir]	5.19	4.29	4.07	516 µM	4.80	3.39		
CCC(CC)COC(=O)[C@H](C)N[P@](=O)(OC[C@H]1O[C@@](C#N)(c2ccc3c(N)ncnn23)[C@H](O)[C@@H]1O)Oc1ccccc1 [Remdesivir, remdesivir]	4.38	3.85	4.59		4.72	4.35	997 µM	
NC12CC3CC(CC(C3)C1)C2 [Amantadine, amantadine]	5.19	4.11	4.35	584 µM	5.29	4.77		
NC(=O)c1nc(F)c[nH]c1=O [Favipiravir, favipiravir]	5.35	4.24	5.22	1250 µM	5.27	5.41		5.22
CC(=O)N[C@H]1[C@H]([C@H](O)[C@H](O)CO)OC(C(=O)O)=C[C@@H]1N=C(N)N [Zanamivir, zanamivir]	4.63	3.74	4.07	1110 µM	4.85	4.77		
